In paper PMC12392461, “Beyond Estrogenicity: A Comparative Assessment of Bisphenol A and Its Alternatives in In Vitro Assays Questions Safety of Replacements” (Environmental Science & Technology, 2025):
Like-named read-outs stand apart in the source and are kept apart here.

Columns and labels:
SH-SY5Y cells = assay: cells; details: for EC10: Homo sapiens, SH-SY5Y; for EC10, linear / logEC10: NOI bioassay, dosing range all; for EC10, linear: linear model; for logEC10: log-logistic model; for Specificity ratio (SRbaseline) SRNOI: against baseline cytotoxicity; for Relative effect potency REPNOI: relative to BPA;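 as to Relative effect potency REPNOI: EC10 of BPA divided by EC10 of the test compound so values above 1 mean more potent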;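 as to Specificity ratio (SRbaseline) SRNOI: ratio of predicted baseline cytotoxicity IC10 to the neurite outgrowth inhibition EC10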
Text: All bioassay media components and the ERα-UAS-bla GripTite and PPARγ-UAS-bla cells were obtained from Thermo Fisher Scientific (Waltham, MA, USA). AREc32 reporter gene cells based on MCF7 were provided by C. Roland Wolf (Cancer Research UK); AhR CALUX cells (H4L7.5c2 derived from H4IIe) were provided by Michael Denison (UC Davis, USA); and SH-SY5Y cells were purchased from Sigma-Aldrich.
(§1) Cell culture conditions and bioassay protocols including response detection are provided in Text S2.1–2.4 and Table S3. − Cell viability was determined from cell confluency using an IncuCyte S3 Live-Cell Analysis System (Sartorius AG, Essen, Germany) before and after exposure, except for SH-SY5Y cells (live–dead staining with Nuclear Green LcS1 and propidium iodide, Abcam, UK). For metabolic activation experiments, cell viability was assessed using the ToxBLAzer DualScreen Kit (Thermo Fisher Scientific) to capture the remaining toxicity in ERα-UAS-bla GripTite after treatment with the aCYP catalyst (details in Text S2.4).
For ARE, the concentration that triggered an induction ratio of 1.5 (ECIR1.5) was used as the benchmark value, as detailed in Text S2.5. IC10 values also served as a threshold for data analysis in all assays; only concentrations below IC10 were considered when deriving EC10 or ECIR1.5. […]
S2: Cell culture and bioassays
S2.1: Cell Culturing Conditions
All suppliers and sources are given in detail in SI-Excel S3. The bioassay media for the different assays were prepared as follows: Assay medium for ER alpha-UAS-bla GripTite (ERα) and PPAR gamma-UAS-bla 293H (PPARγ) was prepared with 98% Opti-MEM, supplemented with 2% charcoal-stripped FBS, and 100 U/mL penicillin-streptomycin. MitoOxTox and AhR assay medium was comprised of 90% DMEM with GlutaMAX, supplemented with 10% FBS, and 100 U/mL penicillin-streptomycin. Neurotoxicity assay medium consisted of the neurobasal […]
(1 picture or pasted object on this page, not shown here) […]
medium, supplemented with 2% B-27 Supplement and 2 mM GlutaMAX Supplement. SH - SY5Y cells were differentiated with 10 µM all-trans retinoic acid prior to the assay.
S2.2: Cell Seeding and Incubation. For all bioassays, cell suspensions in the respective assay medium were dispensed into each well of 384-well plates using a MultiFlo Dispenser (Biotek, (now Agilent), Winooski, VT, U.S.). After seeding, the plates were incubated at 37° C and 5% CO₂ for […]. The final cell densities and plate types were as follows: Black poly-D-lysine coated 384-well plates (Product No. 354663, Corning Inc., NYC, U.S.) were used for PPARγ:
6500 cells/well, ERα: 5000 cells/well. White 384-well plates with a clear bottom (Product No.
781098, Greiner, Kremsmünster, Austria) were utilized for the MitoOxTox assay: 2650

Estrogen Receptor ERα = molecular target: T1, Estrogen Receptor ERα (Homo sapiens, UniProt P03372); assay: aCYP oxidation followed by ERα-UAS-bla GripTite assay (TK-Ratio of effect); format: cell-based; details: for EC10, after oxidation / EC10, before oxidation: ERα; for EC10, after oxidation: after abiotic CYP catalyst; for TKERα: TKERα-Ratio
T1 sequence (P03372 311-547 limits assumed): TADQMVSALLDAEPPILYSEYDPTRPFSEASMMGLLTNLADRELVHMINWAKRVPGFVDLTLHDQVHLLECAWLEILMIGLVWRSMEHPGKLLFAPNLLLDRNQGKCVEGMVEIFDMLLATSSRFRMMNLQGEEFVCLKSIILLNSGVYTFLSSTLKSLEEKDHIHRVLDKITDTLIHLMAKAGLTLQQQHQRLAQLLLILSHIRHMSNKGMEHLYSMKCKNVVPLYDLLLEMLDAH
Description: as §1, with “S2.4). […]” for “S2.4).”
The TK-Ratio method was used to evaluate the impact of abiotic CYP oxidation on the potency of tested compounds. […]
For experiments with the preceding aCYP activation, ERα cell viability was additionally calculated from the readout of the ToxBLAzer reagent. The ToxBLAzer assay was conducted following the manufacturer's instructions (Thermo Fisher, Waltham, MA, U.S.).13 Fluorescence intensity was recorded at the start of the assay ( Fwavelength(0h)) and after a 2-hour incubation at […]
Cell viability was assessed based on the red fluorescence signal at 665 nm, applying eq. S11 for normalization.
Cell viability = F665nm(2h, sample)-F665nm(0h, average cell-free) (S11) F665nm(2h, average unexposed)-F665nm(0h, average cell-free) […]
the specific endpoint to avoid artifacts from cytotoxicity burst. 15
S2.5: Concentration-response curves (CRCs)
To avoid bias from cytotoxicity burst at higher concentrations, all concentrations exceeding the IC10 for cytotoxicity were excluded in the CRC modeling of effects but otherwise cytotoxicity and effects were fitted with the same model equations (response stands for cytotoxicity or effect). For ERα, AhR, ARE and PPARγ preferably a linear model was fitted to the linear portion of CRC up to maximum 30% effect (eq. S12),16 but in some cases it was necessary to choose a sigmoidal log-concentration-response model, specifically a log-logistic model (eq. S13), to derive effect concentrations and cytotoxicity. For mitochondrial toxicity and neurotoxicity, the […]
are not reporter gene assays. Common practice when using log-logistic models, e.g., the model implemented in tcpl package in R,17, 18 is that the minima and maxima are also fitted and only median effect concentrations AC50 are derived. […]
concentrations (EC10) for both linear and log-sigmoidal CRCs to allow absolute comparisons at the same effect level and for TR and SR -analysis. This was done using the AutomatedBioassayScreening19 published by Braun et al.,20 which also included an algorithm to choose the best model between eq. S12 and eq. S13.
Response (%) = slope × C (S12) […]
logEC =logEC − 1 ∙log (max−min − 100%) (S14)

[1] = Abiotic CYP (aCYP) oxidation, remaining parent compound (Cparent-Ratio); details: for Cparent-Ratio Rep.1 %: Table S9, replicate 1; for Cparent-Ratio Rep.2 %: Table S9, replicate 2
[2] = read-out: EC10, linear transformed
[3] = Table S9, loss of parent after aCYP oxidation
[4] = Table S9, mean of two replicate experiments
[5] = Table S9, replicate 1, as fraction
[6] = Table S9, replicate 2, as fraction
[7] = Table S11, measured simultaneously with bioassay

C=CCOc1ccc(S(=O)(=O)c2ccc(O)cc2)cc1 [BPS-MAE, 4-[[4-(Allyloxy)phenyl]sulfonyl]phenol]
EC10 (SH-SY5Y cells; read-out: EC10, NOI): 2.52e-05 M | EC10 (SH-SY5Y cells; read-out: EC10, NOI (M)): 2.52e-05 M | EC10 (SH-SY5Y cells; read-out: EC10, linear): 6.61e-05 M | EC10 (SH-SY5Y cells; [2]): 2.55e-05 M | EC10 (SH-SY5Y cells; read-out: logEC10): 2.51e-05 M | EC10, after oxidation (Estrogen Receptor ERα; Table S10, in M): 1.28E-05 | EC10, before oxidation (Estrogen Receptor ERα; Table S10, in M): 1.26E-05 | TKERα (Estrogen Receptor ERα; Table S10): 0.9842 | % Loss [1, 3]: 1.47%

Oc1ccc(Sc2ccc(O)cc2)cc1 [BPT, 4,4'-Thiodiphenol]
EC10, linear (SH-SY5Y cells): no effect | logEC10 (SH-SY5Y cells): no effect | EC10, after oxidation (Estrogen Receptor ERα; Table S10, in M): 1.15E-06 | EC10, before oxidation (Estrogen Receptor ERα; Table S10, in M): 2.87E-07 | TKERα (Estrogen Receptor ERα; Table S10): 0.2502 | EC10, after oxidation (Estrogen Receptor ERα; Table S11, in M): 2.70E-06 | EC10, before oxidation (Estrogen Receptor ERα; Table S11, in M): 2.28E-06 | TKERα (Estrogen Receptor ERα; Table S11): 0.85 | % Loss [1, 3]: 71% | % Loss ([1]; Table S11): 87%

Cc1ccc(S(=O)(=O)NC(=O)Nc2ccc(Cc3ccc(NC(=O)NS(=O)(=O)c4ccc(C)cc4)cc3)cc2)cc1 [BTUM, 4,4'-Bis(p-tolylsulfonylureido)diphenylmethane]
EC10 (SH-SY5Y cells; read-out: EC10, NOI): 6.48e-05 M | EC10 (SH-SY5Y cells; read-out: EC10, NOI (M)): 6.48e-05 M | EC10 (SH-SY5Y cells; [2]): 6.48e-05 M | EC10 (SH-SY5Y cells; read-out: logEC10): 6.46e-05 M | EC10, linear (SH-SY5Y cells): no effect | Specificity ratio (SRbaseline) SRNOI (SH-SY5Y cells): 1.03 | Relative effect potency REPNOI (SH-SY5Y cells): 0.78 | EC10, before oxidation (Estrogen Receptor ERα; Table S10): no effect | EC10, after oxidation (Estrogen Receptor ERα; Table S10): no effect | outcome of aCYP experiments (Estrogen Receptor ERα; both experimental setups): inconclusive results | reduction of C parent after aCYP oxidation ([1]; 15 min, 30 °C): 70% | % Loss [1, 3]: 70% | Cparent-Ratio Mean [1, 4]: 0.30 | Cparent-Ratio Rep.1 % [1]: 26.78% | Cparent-Ratio Rep.1 [1, 5]: 0.27 | Cparent-Ratio Rep.2 % [1]: 33.79% | Cparent-Ratio Rep.2 [1, 6]: 0.34 | % Loss ([1]; Table S11): 79% | Cparent-Ratio Mean [1, 7]: 0.21 | Cparent-Ratio Rep.1 [1, 7]: 0.23 | Cparent-Ratio Rep.2 [1, 7]: 0.18

COC(=O)C(c1ccc(O)cc1)c1ccc(O)cc1 [Bz, Methyl bis(4-hydroxyphenyl)acetate]
EC10 (SH-SY5Y cells; [2]): 0.0004 M | EC10 (SH-SY5Y cells; read-out: logEC10): 0.00038 M | EC10, linear (SH-SY5Y cells): no effect | EC10, after oxidation (Estrogen Receptor ERα; Table S10, in M): 1.36E-06 | EC10, before oxidation (Estrogen Receptor ERα; Table S10, in M): 9.90E-07 | TKERα (Estrogen Receptor ERα; Table S10): 0.7263 | % Loss [1, 3]: -7% | Cparent-Ratio Mean [1, 4]: 1.07 | Cparent-Ratio Rep.1 % [1]: 113.92% | Cparent-Ratio Rep.1 [1, 5]: 1.14 | Cparent-Ratio Rep.2 % [1]: 100.34% | Cparent-Ratio Rep.2 [1, 6]: 1.00

O=C(OCc1ccccc1)c1ccc(O)cc1 [BzPB, Benzyl 4-hydroxybenzoate]
EC10 (SH-SY5Y cells; [2]): 0.000412 M | EC10, linear (SH-SY5Y cells): no effect | logEC10 (SH-SY5Y cells): no effect | EC10, after oxidation (Estrogen Receptor ERα; Table S10, in M): 4.95E-06 | EC10, before oxidation (Estrogen Receptor ERα; Table S10, in M): 3.07E-06 | TKERα (Estrogen Receptor ERα; Table S10): 0.6192 | % Loss [1, 3]: -22% | Cparent-Ratio Mean [1, 4]: 1.22 | Cparent-Ratio Rep.1 % [1]: 115.59% | Cparent-Ratio Rep.1 [1, 5]: 1.16 | Cparent-Ratio Rep.2 % [1]: 128.10% | Cparent-Ratio Rep.2 [1, 6]: 1.28

CC(C)Oc1ccc(S(=O)(=O)c2ccc(O)cc2)cc1 [D8, 4-((4-Isopropoxyphenyl)sulfonyl)phenol]
EC10 (SH-SY5Y cells; read-out: EC10, NOI): 0.000191 M | EC10 (SH-SY5Y cells; read-out: EC10, NOI (M)): 0.000191 M | EC10 (SH-SY5Y cells; read-out: EC10, linear): 0.000353 M | EC10 (SH-SY5Y cells; [2]): 0.000186 M | EC10 (SH-SY5Y cells; read-out: logEC10): 0.000191 M | Specificity ratio (SRbaseline) SRNOI (SH-SY5Y cells): 0.56 | Specificity ratio (SRcytotoxicity) SRNOI (SH-SY5Y cells; against experimental cytotoxicity): 2.56 | Relative effect potency REPNOI (SH-SY5Y cells): 0.27 | EC10, before oxidation (Estrogen Receptor ERα; Table S10, in M): 1.21E-05 | % Loss [1, 3]: -13% | Cparent-Ratio Mean [1, 4]: 1.13 | Cparent-Ratio Rep.1 % [1]: 114.96% | Cparent-Ratio Rep.1 [1, 5]: 1.15 | Cparent-Ratio Rep.2 % [1]: 110.37% | Cparent-Ratio Rep.2 [1, 6]: 1.10

CC1(C)[C@H](O)C(C)(C)[C@H]1O [t-TMCD, trans-2,2,4,4-Tetramethyl-1,3-cyclobutanediol]
EC10 (SH-SY5Y cells; read-out: EC10, NOI): 0.00415 M | EC10 (SH-SY5Y cells; read-out: EC10, NOI (M)): 0.00415 M | Specificity ratio (SRbaseline) SRNOI (SH-SY5Y cells): 0.24 | Relative effect potency REPNOI (SH-SY5Y cells): 0.0122 | EC10, before oxidation (Estrogen Receptor ERα; Table S10, in M): 3.18E-03 | % Loss [1, 3]: 0.48% | Cparent-Ratio Mean [1, 4]: 1.00 | Cparent-Ratio Rep.1 % [1]: 90.48% | Cparent-Ratio Rep.1 [1, 5]: 0.90 | Cparent-Ratio Rep.2 % [1]: 108.56% | Cparent-Ratio Rep.2 [1, 6]: 1.09
